The values below come from patent US12239654B2, “Compounds and methods for treating neurological and cardiovascular conditions” (Astrocyte Pharmaceuticals, Inc., priority 2016, dated 2025).

Where two headings read alike, the source gives them in different places.

The target of data set [1] is T1, human A3 adenosine receptor (Homo sapiens, UniProt P0DMS8).
T1 construct: expressed in transfected cells; whole cells for cAMP
T1 sequence (P0DMS8 1-318): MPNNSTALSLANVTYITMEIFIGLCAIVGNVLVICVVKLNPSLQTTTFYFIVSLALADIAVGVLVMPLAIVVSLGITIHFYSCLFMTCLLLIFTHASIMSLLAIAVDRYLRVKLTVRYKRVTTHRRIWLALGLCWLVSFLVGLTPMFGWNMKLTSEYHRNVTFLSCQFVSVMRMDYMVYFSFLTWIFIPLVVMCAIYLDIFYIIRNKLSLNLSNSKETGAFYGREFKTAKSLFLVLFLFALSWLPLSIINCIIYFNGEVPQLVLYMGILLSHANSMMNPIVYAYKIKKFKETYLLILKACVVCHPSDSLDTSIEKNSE
The experiment in a line: cAMP accumulation at human A3 receptors expressed in CHO cells. It counts as cell-based. On the procedure: Additionally cAMP experiments were conducted at CHO cells recombinantly expressing human A3 or mouse A3 adenosine receptors, respectively.
For orientation: Cyclic AMP is a second messenger, typically raised through Gs and lowered through Gi signalling.

Data set [2] in a line: Pharmacokinetics of MRS4322 following intraperitoneal administration to mice (plasma and brain concentrations, LC-MS/MS). It counts as in vivo. The conditions noted are these: female, mouse, plasma; for Tmax: MRS4322 0.16 mg/kg ip; for half-life: ip, MRS4322 […] ip. The protocol: Animals: Female C576BL/6J mice weighing approximately 0.02 kg were used for this study, supplied by the University of Texas Health Sciences Center (San Antonio, TX). All studies were conducted under approved University of Texas Health Sciences Center IACUC protocols.
Drug Administration: MRS4322 was solubilized in DMSO and then diluted in saline to prepare dosing solution. Final dosing solution concentration of MRS4322 was 100 μM. A 100 μL volume of dosing solution was administered intraperitoneally to each mouse per 20 gram body weight; MRS4322 was administered intraperitoneally at 0.16 mg/kg or 0.5 μmol/kg. Three mice were administered MRS4322 for each sampling timepoint.
Tissue Sampling: Blood and brain samples were obtained at 0, 0.083, 0.25, 0.5, 1, 2 and 8 hours post-dose. At each timepoint, mice (3/timepoint) were euthanized in a […] chamber. Whole blood was obtained by cardiac puncture into Microtainer tubes containing heparin and immediately centrifuged for preparation of plasma; plasma was stored at −80° C. At each timepoint, whole brain samples were obtained by decapitation, rinsed in ice-cold phosphate-buffered saline and weighed. Brain samples were then immediately flash-frozen in liquid nitrogen and stored at −80° C.
The following table outlines the LC and MS/MS conditions employed:
The calibration range for the MRS4322 plasma concentration standard curve was 2.42-242 ng/mL. The calibration range for MRS4322 brain concentrations was 2.41-233 ng/mL.
For bioanalysis of brain concentrations of MRS4322, brain samples were homogenized in ice-cold phosphate-buffered saline in a 4× dilution. Aliquots of the resulting diluted brain homogenate were treated with acetonitrile and analyzed by LC-MS/MS. Because of the 4× homogenate dilution, the calibration range of the MRS4322 brain standard curve was translated to 9.64-932 ng/gm. In several samples, MRS4322 was detectable but fell below the brain LLOQ of 9.64 ng/gm but were above background; in these cases the final reported brain concentration was extrapolated based on MS peak heights.

Data set [3] in a line: Stability of MRS2365 incubated in phosphate-buffered saline. It counts as physicochemical.
A short description of data set [4]: In vitro stability of MRS2365 in mouse plasma. It counts as in vitro ADME. The protocol:
(§1) Whole blood was obtained from male CD-1 mice and human volunteers at Seventh Wave Laboratories (Maryland Heights, MO). Plasma and blood samples were prepared using either EDTA (1 mM) or lithium heparin as anticoagulants.
(§2) Plasma Stability Determination: MRS2365, enalapril and procaine were solubilized in phosphate-buffered saline, pH 7.4. […] Stability incubations were initiated with the addition of MRS2365 (1 μM final concentration). Initial assessments of stability in EDTA-generated plasma utilized incubation timepoints of 0, 10, 30, 60, 120 and 240 minutes (FIGS. 3 and 4). Subsequent studies comparing EDTA- and heparin-generated plasma utilized incubation timepoints of 0, 1, 2.5, 5, 7.5, 10 and 30 minutes (FIG. 7). Additional plasma stability incubations comparing EDTA- and heparin-generated plasma were performed using timepoints of 0, 5, 10, 20, 30, 45, 60 and 90 seconds (FIG. 8). For metabolite scouting analyses, MRS2365 was incubated in heparinized human plasma at a concentration of 100 μM for 10 or 30 minutes (FIG. 9). In all studies, plasma was immediately placed in microtainer tubes, frozen on dry ice and stored at −80° C. until analysis.
(§3) The following table outlines the LC and MS/MS conditions employed (Table 11).
(§4) The calibration range for MRS2365 plasma and blood concentration standard curves was 5-5000 ng/mL. […]

The nature of data set [5]: In vitro stability of MRS2365 in human plasma. It counts as in vitro ADME. The protocol: as §1, §2, §3, §4
Data set [6] can be described thus: Previous/initial in vivo pharmacokinetic assessments of MRS2365 in mice.
Data set [7] can be described thus: In vitro stability of MRS2365 in human whole blood. It counts as in vitro ADME. The conditions noted are these: EDTA-treated human whole blood, read-out: estimated half-life. The protocol:
as §1
(§5) Blood Stability Determination: MRS2365, enalapril and procaine were solubilized in phosphate-buffered saline, pH 7.4. […] Stability incubations were initiated with the addition of MRS2365 (1 μM final concentration) (FIGS. 5 and 6). Blood sample aliquots were obtained at 0, 1, 2.5, 7.5, 10 and 30 minutes and placed in microtainer tubes. For metabolite scouting analyses, MRS2365 was incubated in heparinized human whole blood at a concentration of 100 μM for 10 or 30 minutes (FIG. 10). In all studies, plasma was immediately prepared by centrifugation at 4° C., placed in microtainer tubes, frozen on dry ice and stored at −80° C. until analysis.
as §3
(§6) The calibration range for MRS2365 plasma and blood concentration standard curves was 5-5000 ng/mL. Quality control samples were utilized at concentrations of 32, 160, 800 and 4000 ng/mL.

A short description of data set [8]: In vitro stability of MRS2365 in mouse whole blood. It counts as in vitro ADME. The conditions noted are these: male, CD-1, EDTA-treated mouse whole blood. On the procedure: as §1, §5, §3, §6

By EC50 is commonly meant the midpoint of the concentration-response curve. In general, Tmax refers to the time at which the peak concentration occurs. A word on the half-life: it is the time in which the quantity being followed falls by half. With `CSc1nc(N)c2ncn([C@H]3[C@H](O)[C@H](O)[C@]4(CO)C[C@H]34)c2n1` [MRS4322], the EC50 in data set [1] (CHO cells stably expressing human A3R, read-out: EC50 ± SEM, Human A3R, cAMP accumulation) came out at 3.63 ± 0.37 µM. Also, the Emax at 100 µM in data set [1] (read-out: efficacy at 100 μM concentration in % relative to maximal effect of NECA, Human A3R, 100 μM, cAMP accumulation, CHO cells) was 70%. The Tmax in data set [2] (C57BL/6J, mean, read-out: Tmax Mean) worked out at 4.98 min; in data set [2] (C576BL/6J, animals A-C, read-out: Tmax) it was 4.98 min. In addition, the half-life in data set [2] (C57BL/6J, mean, read-out: Half-life Mean (converted)) was 18.6 min; in data set [2] (C576BL/6J, animals A-C, read-out: Half-life (converted)), 18.4 min.

For the compound `CSc1nc(N)c2ncn([C@H]3[C@H](O)[C@H](O)[C@]4(COP(=O)(O)OP(=O)(O)O)C[C@H]34)c2n1` [MRS2365], the “stability when incubated in phosphate-buffered saline” value in data set [3] was “completely stable”. The “MRS2365 concentrations in heparin-treated plasma” value in data set [4] (heparin-treated mouse plasma, 0-90 seconds, even at 0 and 5 seconds) is given as “extremely low”; in data set [5] (heparin-treated human plasma, 0-90 seconds, even at 0 and 5 seconds) it was “extremely low”. Also, the half-life at 1 μM is above 240 min in data set [4] (male, CD-1, EDTA-prepared mouse plasma, 1 μM, incubation out to 240 minutes); above 240 min in data set [5] (EDTA-prepared human plasma, 1 μM, incubation out to 240 minutes); above 240 min in data set [7]; 47 min in data set [8]. For the same compound, the “circulating and brain concentrations of MRS2365” value in data set [6] (following intraperitoneal or intravenous administration, previous studies) is recorded as “no detectable”. In addition, in data set [6] (mice, heparin as blood anticoagulant for plasma preparation), the clearance in vivo result is “rapidly cleared at a rate approximating cardiac output”.
